Reference: PMC7115414 (European Journal of Medicinal Chemistry, 2017)

Experiments:
[1] = target: T1, SARS-CoV M^pro (Severe acute respiratory syndrome coronavirus, UniProt P0C6X7); test: biochemical
[2] = target: T1, SARS-CoV M^pro; format: biochemical

| Structure (SMILES) | IC50 [1] | inhibition type (reciprocal plots, velocity versus substrate concentration) [2] | reversibility (plot of enzyme concentration versus reaction velocity) [2] | α (effect of inhibitor on the affinity of the enzyme for its substrate) [2] |
| --- | --- | --- | --- | --- |
| COC(=O)c1c[nH]c(SSc2ccccc2[N+](=O)[O-])n1 [Compound 3-14, Methyl 2-((2-nitrophenyl)disulfanyl)-1H-imidazole-4-carboxylate] | 2.075 ± 0.016 µM |  |  |  |
| Clc1ccc(SSc2nnco2)cc1 [Compound 3-31, 2-((4-chlorophenyl)disulfanyl)-1,3,4-oxadiazole] |  | non-competitive inhibitor | reversible | < 1 |
| Brc1ccc(SSc2ncccn2)cc1 [Compound 3-39, 2-((4-bromophenyl)disulfanyl)pyrimidine] |  | non-competitive inhibitor | reversible | < 1 |
| COC(=O)c1c[nH]c(SSc2ccccc2C(=O)OC)n1 [Compound 3-16, Methyl 2-((2-(methoxycarbonyl)phenyl)disulfanyl)-1H-imidazole-4-carboxylate] | 3.96 ± 0.19 µM |  |  |  |
| COC(=O)c1c[nH]c(SSc2ccc(Cl)cc2)n1 [Compound 3-17, Methyl 2-((4-chlorophenyl)disulfanyl)-1H-imidazole-4-carboxylate] | 4.13 ± 0.094 µM |  |  |  |
| CCOC(=O)c1ccccc1SSc1nc(C(=O)OC)c[nH]1 [Compound 3-15, Methyl 2-((2-(ethoxycarbonyl)phenyl)disulfanyl)-1H-imidazole-4-carboxylate] | 5.95 ± 0.363 µM |  |  |  |
